Measured values reported in US20090110671A1, “AGENT FOR ENHANCHING THE PRODUCTION OF COLLAGEN AND IT'S USE” (priority 2005, published 2009).

Tests used:
[1] = test system: flabby skin or skin wrinkles/finely-wrinkles; assay: Experiment 6: self-evaluation of lotions with AMP and/or CoQ10 on flabby skin or skin wrinkles/finely-wrinkles, three months; type: in vivo, human; conditions: lotion, 3 months
Source text: Eleven women as volunteers, who had been suffering from skin wrinkles/finely-wrinkles or flabby skin, were allowed to wash their faces with any of the lotions having compositions in Table 5 three times a day for four months and then allowed to evaluate themselves about their face-skin conditions by comparing with those before use of the lotions. […] The influence of a combination use of α,α-trehalose or saccharide derivatives thereof, sodium hyaluronate and/or chondroitin sulfate, and adenosine monophosphate (may be abbreviated as “AMP”, hereinafter) and/or coenzyme Q10 (may be abbreviated as “CoQ10”, hereinafter) on the skin was examined by the following experiment. One hundred parts by weight of respective lotions were prepared by adding to fresh preparations of the same lotion with the basic composition ratio as used in Experiment 5 sodium hyaluronate, chondroitin sulfate, hydrous crystalline α,α-trehalose, a cosmetic grade specimen commercialized by Hayashibara Biochemical Laboratories Inc., Okayama, Japan, and “[…]”, a product name of a syrup having saccharide derivatives of α,α-trehalose commercialized by Hayashibara Biochemical Laboratories Inc., Okayama, Japan, AMP, and CoQ10 according to the combinations and compositions as in Table 6 below. The amounts of added saccharides are represented based on a dry solid basis. The syrup containing saccharide derivatives of α,α-trehalose was added to each lotion to give respective composition ratios as in Table 6. Any of the lotions was allowed to be used every day by 11 females who had been suffering from flabby skin or skin wrinkles/finely-wrinkles, three times a day for three months, and the results were evaluated on flabby skin or skin wrinkles/finely-wrinkles by the method similarly as in Experiment 5.

[2] = test system: NHDF cells; assay: Experiment 4: collagen production in NHDF cells, saccharides combined with hyaluronic acid and/or chondroitin sulfate; type: cell-based, human
Source text: Influence of α,α-trehalose or a saccharide derivative thereof, or a combination use of any of these saccharides and hyaluronic acid and/or chondroitin sulfate on the collagen production by L-ascorbic acids was examined as follows. AA-2G and any one of hydrous crystalline α,α-trehalose, a reagent grade specimen commercialized by Hayashibara Biochemical Laboratories Inc., Okayama, Japan; α-maltosyl α,α-trehalose with a purity of at least 98% commercialized by Hayashibara Biochemical Laboratories Inc., Okayama, Japan; and “HALLODEX”, a product name of a syrup of saccharide derivatives of α,α-trehalose were dissolved in D-MEM medium to give final concentrations of 50 μM of AA-2G and 15.0 mg/ml of saccharides. Further, as another test solutions, those, which had been prepared similarly as in the above, were admixed with any one of hyaluronic acid, chondroitin sulfate, and a combination thereof to give respective concentrations of 1 mg/ml, 1 mg/ml, and 0.5 mg/ml of hyaluronic acid and chondroitin sulfate each. The medium supplemented with a syrup containing about 59%, d.s.b., of saccharide derivatives of α,α-trehalose was prepared to give a concentration of 15.0 mg/ml of the saccharide derivatives of α,α-trehalose contained in the syrup. The culture of NHDF cells and the quantification of collagen-production level thereof were carried out similarly as in Experiment 1. The results are in Table 4 where the values are expressed with relative values in terms of the collagen-production level of NHDF cells, being regarded as 100, when cultured in D-MEM medium containing AA-2G.

[3] = test system: NHDF cells; assay: Experiment 3: collagen production in NHDF cells, α,α-trehalose and saccharide derivatives with or without AA-2G; type: cell-based, human; conditions: relative to AA-2G = 100
Experimental: Based on the confirmation that α,α-trehalose has an action of enhancing the collagen production by L-ascorbic acid, it was experimented as follows to confirm whether saccharide derivatives of α,α-trehalose have such a similar action and effect. Test solutions were prepared by dissolving in D-MEM medium any one of AA-2G, hydrous crystalline α,α-trehalose, a reagent grade specimen with a purity of at least 98%, commercialized by Hayashibara Biochemical Laboratories Inc., Okayama, Japan; “HALLODEX”, a product name of a syrup of saccharide derivatives of α,α-trehalose, having a solid content of about 75% and containing, on a dry solid basis, about 53% of α-maltosyl α,α-trehalose and about 5% of other saccharide derivatives of α,α-trehalose in total, to give final concentrations of 50 μM of AA-2G and 15.0 mg/ml of saccharides. As a control, test solutions were prepared by dissolving in D-MEM medium either of the above hydrous crystalline α,α-trehalose, α-maltosyl α,α-trehalose, or syrup of saccharide derivatives of α,α-trehalose to give a final concentration of 15.0 mg/ml. The medium admixed with the syrup containing saccharide derivatives of α,α-trehalose was adjusted to give a concentration of 15.0 mg/ml of saccharide derivatives of α,α-trehalose. The culture of NHDF cells and the quantification of collagen-production level thereof were carried out similarly as in Experiment 1. The results are in Table 3, where the values are expressed with relative values in terms of the collagen production level of NHDF cells, being regarded as 100, when cultured in D-MEM medium containing AA-2G.

[4] = saccharide one part by weight + AMP 0.1 + CoQ10 0.1
[5] = saccharide one part by weight + AMP 0.2
[6] = saccharide one part by weight + CoQ10 0.2
[7] = saccharide one part by weight + sodium hyaluronate 0.1 + chondroitin sulfate 0.1 + AMP 0.1 + CoQ10 0.1
[8] = saccharide one part by weight + sodium hyaluronate 0.1 + chondroitin sulfate 0.1 + AMP 0.2
[9] = saccharide one part by weight + sodium hyaluronate 0.1 + chondroitin sulfate 0.1 + CoQ10 0.2
[10] = saccharide one part by weight + sodium hyaluronate 0.1 + chondroitin sulfate 0.1
[11] = saccharide one part by weight alone, 3 times a day
[12] = saccharide 15.0 mg/ml + 50 μM AA-2G

OC[C@H]1O[C@H](O[C@H]2O[C@H](CO)[C@@H](O)[C@H](O)[C@H]2O)[C@H](O)[C@@H](O)[C@@H]1O [α,α-trehalose]
Evaluation A (remarkably efficacious) [1, 4]: 2 number of volunteers | Evaluation B (efficacious) [1, 4]: 3 number of volunteers | Evaluation C (slightly efficacious) [1, 4]: 5 number of volunteers | Evaluation D (inefficacious) [1, 4]: 1 number of volunteers | Evaluation A (remarkably efficacious) [1, 5]: 2 number of volunteers | Evaluation B (efficacious) [1, 5]: 2 number of volunteers | Evaluation C (slightly efficacious) [1, 5]: 6 number of volunteers | Evaluation D (inefficacious) [1, 5]: 1 number of volunteers | Evaluation A (remarkably efficacious) [1, 6]: 1 number of volunteers | Evaluation B (efficacious) [1, 6]: 3 number of volunteers | Evaluation C (slightly efficacious) [1, 6]: 6 number of volunteers | Evaluation D (inefficacious) [1, 6]: 1 number of volunteers | Evaluation A (remarkably efficacious) [1, 7]: 5 number of volunteers | Evaluation B (efficacious) [1, 7]: 5 number of volunteers | Evaluation C (slightly efficacious) [1, 7]: 1 number of volunteers | Evaluation D (inefficacious) [1, 7]: 0 number of volunteers | Evaluation A (remarkably efficacious) [1, 8]: 3 number of volunteers | Evaluation B (efficacious) [1, 8]: 4 number of volunteers | Evaluation C (slightly efficacious) [1, 8]: 4 number of volunteers | Evaluation D (inefficacious) [1, 8]: 0 number of volunteers | Evaluation A (remarkably efficacious) [1, 9]: 4 number of volunteers | Evaluation B (efficacious) [1, 9]: 3 number of volunteers | Evaluation C (slightly efficacious) [1, 9]: 4 number of volunteers | Evaluation D (inefficacious) [1, 9]: 0 number of volunteers | Evaluation A (remarkably efficacious) [1, 10]: 2 number of volunteers | Evaluation B (efficacious) [1, 10]: 4 number of volunteers | Evaluation C (slightly efficacious) [1, 10]: 4 number of volunteers | Evaluation D (inefficacious) [1, 10]: 1 number of volunteers | Evaluation A (remarkably efficacious) [1, 11]: 1 number of volunteers | Evaluation B (efficacious) [1, 11]: 2 number of volunteers | Evaluation C (slightly efficacious) [1, 11]: 6 number of volunteers | Evaluation D (inefficacious) [1, 11]: 2 number of volunteers | Collagen-production level [2, 12]: 203 | Collagen-production level ([2]; saccharide 15.0 mg/ml + 50 μM AA-2G + chondroitin sulfate 1 mg/ml): 256 | Collagen-production level ([2]; saccharide 15.0 mg/ml + 50 μM AA-2G + hyaluronate and chondroitin sulfate 0.5 mg/ml each): 344 | Collagen-production level ([2]; saccharide 15.0 mg/ml + 50 μM AA-2G + sodium hyaluronate 1 mg/ml): 276 | Collagen-production level ([2]; saccharide 15.0 mg/ml alone, no AA-2G, no hyaluronate, no chondroitin sulfate): 42 | Collagen-production level [3, 12]: 227 | Collagen-production level ([3]; saccharide 15.0 mg/ml, AA-2G not added): 40
